In US12655142B2 (Merck Patent GmbH, priority 2019, dated 2026):

Experiments:
[1] = Determination of Efflux-Ratio (ER) in Caco-2 cells; settings: human, Caco-2, pH 7.4
[2] = target: T1, GIST430/654 cell line expressing mutated constitutively active cKIT receptor tyrosine kinase (Δ560-576 deletion and V654A point mutation) (Homo sapiens, UniProt P10721, DEL560-576/V654A); test: Cellular cKIT autophosphorylation (phospho-Y307-cKIT, Luminex bead assay) in GIST430/654 cells; type: cell-based; settings: compounds 45 min, read-out: GIST 430/654 IC50
T1 construct: endogenous in cells; host or cells: GIST430/654 cells
T1 sequence (P10721 with tags, fused parts or gaps DEL560-576/V654A): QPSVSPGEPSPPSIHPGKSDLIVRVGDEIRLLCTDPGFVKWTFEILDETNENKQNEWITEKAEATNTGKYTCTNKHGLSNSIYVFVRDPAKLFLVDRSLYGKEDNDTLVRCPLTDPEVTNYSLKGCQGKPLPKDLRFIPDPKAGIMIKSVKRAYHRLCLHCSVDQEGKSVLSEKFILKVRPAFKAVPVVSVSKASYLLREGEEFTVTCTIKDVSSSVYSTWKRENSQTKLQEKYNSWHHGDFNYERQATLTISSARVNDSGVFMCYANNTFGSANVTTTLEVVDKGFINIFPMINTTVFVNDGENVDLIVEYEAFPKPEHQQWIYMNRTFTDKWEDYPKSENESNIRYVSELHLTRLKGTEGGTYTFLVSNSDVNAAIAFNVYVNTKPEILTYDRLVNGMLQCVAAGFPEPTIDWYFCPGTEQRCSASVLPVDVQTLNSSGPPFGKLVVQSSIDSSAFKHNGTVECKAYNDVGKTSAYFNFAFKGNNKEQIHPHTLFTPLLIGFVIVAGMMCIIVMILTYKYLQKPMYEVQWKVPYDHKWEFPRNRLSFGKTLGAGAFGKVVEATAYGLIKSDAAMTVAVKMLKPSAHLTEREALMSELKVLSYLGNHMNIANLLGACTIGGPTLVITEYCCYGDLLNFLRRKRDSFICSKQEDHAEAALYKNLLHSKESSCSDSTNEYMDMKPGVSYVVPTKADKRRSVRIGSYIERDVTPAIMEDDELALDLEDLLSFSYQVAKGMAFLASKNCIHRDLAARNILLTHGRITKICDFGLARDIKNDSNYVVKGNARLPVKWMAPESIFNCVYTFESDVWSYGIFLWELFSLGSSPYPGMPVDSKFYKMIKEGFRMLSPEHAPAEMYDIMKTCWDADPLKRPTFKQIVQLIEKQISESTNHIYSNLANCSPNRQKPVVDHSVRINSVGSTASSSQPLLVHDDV
Procedure, shortened: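 GIST430 (Δ560-576) and imatinib-resistant GIST430/654 (plus V654A; grown with 100 nM imatinib) cells were plated in IMDM/15% FCS and treated next day with serially diluted compound for 45 min. Lysates were captured on anti-total-cKIT Luminex beads overnight at 4 °C and probed for phospho-Y307. IC50 was taken from percent of 0.3% DMSO control.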

[3] = target: T2, c-Kit(V654A) (Homo sapiens, UniProt P10721, V654A); test: c-Kit(V654A) assay (33P-ATP filter binding kinase assay); type: biochemical; settings: recombinant human c-Kit aa 544-end V654A, ATP 200 μM
T2 construct: recombinant human c-Kit, amino acids 544-end containing the V654A mutation; GST (N)
T2 sequence (P10721 544-976 V654A): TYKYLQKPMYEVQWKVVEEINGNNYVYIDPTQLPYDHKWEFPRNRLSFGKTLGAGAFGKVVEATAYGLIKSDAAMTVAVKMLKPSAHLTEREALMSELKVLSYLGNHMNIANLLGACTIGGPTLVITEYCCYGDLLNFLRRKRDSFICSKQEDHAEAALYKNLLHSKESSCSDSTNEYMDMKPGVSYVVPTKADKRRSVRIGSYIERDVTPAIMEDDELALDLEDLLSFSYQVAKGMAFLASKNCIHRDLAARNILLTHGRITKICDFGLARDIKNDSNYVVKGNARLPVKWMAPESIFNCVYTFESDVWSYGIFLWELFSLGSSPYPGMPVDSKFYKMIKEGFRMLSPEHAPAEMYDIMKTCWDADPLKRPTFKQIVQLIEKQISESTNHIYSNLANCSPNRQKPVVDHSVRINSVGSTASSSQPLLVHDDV
Procedure, shortened: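 Radiometric filter-binding read-out: substrate 33P incorporation counted by scintillation after P30 filtermat washes in 75 mM phosphoric acid and methanol. Enzyme: N-GST recombinant human c-Kit aa 544-end carrying V654A.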

| SMILES | efflux ratio at 2 h, 1 μM [1] | IC50 [2] | IC50 [3] |
| --- | --- | --- | --- |
| COCCOc1ccn2c(-c3cc(NCc4ccc(-c5cnn6c5CCC6)cc4)ncn3)cnc2c1 [A17, 6-[7-(2-methoxyethoxy)imidazo[1,2-a]pyridin-3-yl]-N-[(4-{4H,5H,6H-pyrrolo[1,2-b]pyrazol-3-yl}phenyl)methyl]pyrimidin-4-amine] | < 15 | 110 nM | 9.7 nM |
| COCCn1cc(-c2ccc(CNc3cc(-c4cnc5cc(OC)ccn45)ncn3)cc2)cn1 [A19, {4-[1-(2-methoxy-ethyl)-1H-pyrazol-4-yl]-benzyl}-[6-(7-methoxy-imidazo[1,2-a]pyridin-3-yl)-pyrimidin-4-yl]-amine] | < 15 | 71 nM | 9.4 nM |
| COc1ccn2c(-c3cc(NCc4ccc(-c5cnn(C)c5CO)cc4)ncn3)cnc2c1 [A161, [4-(4-{[6-(7-methoxy-imidazo[1,2-a]pyridin-3-yl)-pyrimidin-4-ylamino]-methyl}-phenyl)-2-methyl-2H-pyrazol-3-yl]-methanol] | – | 180 nM | 22 nM |
| Cn1cc(-c2ccc(CNc3cc(-c4cnc5cc(N)ccn45)ncn3)cc2)cn1 [A162, 6-{7-aminoimidazo[1,2-a]pyridin-3-yl}-N-{[4-(1-methyl-1H-pyrazol-4-yl)phenyl]methyl}pyrimidin-4-amine] | – | 180 nM | 7.4 nM |
| Cn1cc(-c2ccc(CNc3cc(-c4cnc5cc(NC(C)(C)CO)ccn45)ncn3)cc2)cn1 [A163, 2-methyl-2-(3-{6-[4-(1-methyl-1H-pyrazol-4-yl)-benzylamino]-pyrimidin-4-yl}-imidazo[1,2-a]pyridin-7-ylamino)-propan-1-ol] | – | 1900 nM | 85 nM |
| Cn1cc(-c2ccc(CNc3cc(-c4cnc5cc(OC6CCNCC6)ccn45)ncn3)cc2)cn1 [A164, N-{[4-(1-methyl-1H-pyrazol-4-yl)phenyl]methyl}-6-[7-(piperidin-4-yloxy)imidazo[1,2-a]pyridin-3-yl]pyrimidin-4-amine] | – | 260 nM | 9 nM |
| Cn1cc(-c2ccc(CNc3cc(-c4cnc5cc(CCN6CCC(F)(F)C6)ccn45)ncn3)cc2)cn1 [A169, (6-{7-[2-(3,3-difluoro-pyrrolidin-1-yl)-ethyl]-imidazo[1,2-a]pyridin-3-yl}-pyrimidin-4-yl)-[4-(1-methyl-1H-pyrazol-4-yl)-benzyl]-amine] | – | 300 nM | 32 nM |
| Cn1cc(-c2ccc(CNc3cc(-c4cnc5cc(N6CCOCC6)ccn45)ncn3)cc2)cn1 [A180, [4-(1-methyl-1H-pyrazol-4-yl)-benzyl]-[6-(7-morpholin-4-yl-imidazo[1,2-a]pyridin-3-yl)-pyrimidin-4-yl]-amine] | – | 77 nM | 7.8 nM |
| CN1CCN(c2ccn3c(-c4cc(NCc5ccc(-c6cnn(C)c6)cc5)ncn4)cnc3c2)CC1 [A181, {6-[7-(4-methyl-piperazin-1-yl)-imidazo[1,2-a]pyridin-3-yl]-pyrimidin-4-yl}-[4-(1-methyl-1H-pyrazol-4-yl)-benzyl]-amine] | – | 110 nM | 15 nM |
| Cn1cc(-c2ccc(CNc3cc(-c4cnc5cc(OC6CCN(C7COC7)CC6)ccn45)ncn3)cc2)cn1 [A182, N-{[4-(1-methyl-1H-pyrazol-4-yl)phenyl]methyl}-6-(7-{[1-(oxetan-3-yl)piperidin-4-yl]oxy}imidazo[1,2-a]pyridin-3-yl)pyrimidin-4-amine] | – | 92 nM | 11 nM |
| Cn1cc(-c2ccc(CNc3cc(-c4cnc5cc(OCC6CCN(C7CC7)CC6)ccn45)ncn3)cc2)cn1 [A187, {6-[7-(1-cyclopropyl-piperidin-4-ylmethoxy)-imidazo[1,2-a]pyridin-3-yl]-pyrimidin-4-yl}-[4-(1-methyl-1H-pyrazol-4-yl)-benzyl]-amine] | – | 380 nM | 7.5 nM |
| Cn1cc(-c2ccc(CNc3cc(-c4cnc5cc(OCC6CCN(CC#N)CC6)ccn45)ncn3)cc2)cn1 [A188, [4-(3-{6-[4-(1methyl-1H-pyrazol-4-yl)-benzylamino]-pyrimidin-4-yl}-imidazo[1,2-a]pyridin-7-yloxymethyl)-piperidin-1-yl]-acetonitrile] | – | 190 nM | 9.5 nM |
| COCCN1CCC(COc2ccn3c(-c4cc(NCc5ccc(-c6cnn(C)c6)cc5)ncn4)cnc3c2)CC1 [A190] | – | 170 nM | 3.8 nM |
| COCCN1CCC(COc2ccn3c(-c4cc(NCc5ccc(-c6cnn(C)n6)cc5)ncn4)cnc3c2)CC1 [A191, (6-{7-[1-(2-methoxy-ethyl)-piperidin-4-ylmethoxy]-imidazo[1,2-a]pyridin-3-yl}-pyrimidin-4-yl)-[4-(2-methyl-2H-[1,2,3]triazol-4-yl)-benzyl]-amine] | – | 39 nM | 2.2 nM |
| Cn1ncc(-c2ccc(CNc3cc(-c4cnc5cc(OCC6CCN(CC(F)F)CC6)ccn45)ncn3)cc2)n1 [A193, (6-{7-[1-(2,2-difluoro-ethyl)-piperidin-4-ylmethoxy]-imidazo[1,2-a]pyridin-3-yl}-pyrimidin-4-yl)-[4-(2-methyl-2H-[1,2,3]triazol-4-yl)-benzyl]-amine] | – | 26 nM | 19 nM |
| Cn1cc(-c2ccc(CNc3cc(-c4cnc5cc(OCCN6C[C@@H](F)[C@@H](F)C6)ccn45)ncn3)cc2)cn1 [A209, (6-{7-[2-((3S,4R)-3,4-difluoro-pyrrolidin-1-yl)-ethoxy]-imidazo[1,2-a]pyridin-3-yl}-pyrimidin-4-yl)-[4-(1-methyl-1H-pyrazol-4-yl)-benzyl]-amine] | – | 78 nM | 9.5 nM |
| Cn1cc(-c2ccc(CNc3cc(-c4cnc5cc(OCCN6CCC[C@@H]7OCC[C@@H]76)ccn45)ncn3)cc2)cn1 [A210, (6-{7-[(3aS,7aS)-2-(hexahydro-furo[3,2-b]pyridin-4-yl)-ethoxy]-imidazo[1,2-a]pyridin-3-yl}-pyrimidin-4-yl)-[4-(1-methyl-1H-pyrazol-4-yl)-benzyl]-amine] | – | 100 nM | 6.5 nM |
| Cn1cc(-c2ccc(CNc3cc(-c4cnc5cc(OCCCCN6CCC6)ccn45)ncn3)cc2)cn1 [A225, {6-[7-(4-azetidin-1-yl-butoxy)-imidazo[1,2-a]pyridin-3-yl]-pyrimidin-4-yl}-[4-(1-methyl-1H-pyrazol-4-yl)-benzyl]-am amine] | – | 57 nM | 15 nM |
| CC(COc1ccn2c(-c3cc(NCc4ccc(-c5cnn(C)n5)cc4)ncn3)cnc2c1)CN1CCCC1 (centres unmarked) [A227, {6-[7-(2-methyl-3-pyrrolidin-1-yl-propoxy)-imidazo[1,2-a]pyridin-3-yl]-pyrimidin-4-yl}-[4-(2-methyl-2H-[1,2,3]triazol-4-yl)-benzyl]-amine] | – | 48 nM | 3.3 nM |
| Cn1cc(-c2ccc(CNc3cc(-c4cnc5cc(OCCC[N+]6([O-])CCCC6)ccn45)ncn3)cc2)cn1 [A228, 1-[3-({3-[6-({[4-(1-methyl-1H-pyrazol-4-yl)phenyl]methyl}amino)pyrimidin-4-yl]imidazo[1,2-a]pyridin-7-yl}oxy)propyl]pyrrolidin-1-ium-1-olate] | – | 44 nM | 11 nM |
| COc1ccn2c(-c3cc(NCc4ccc(-c5cn(CC(C)(C)O)nc5N)cc4)ncn3)cnc2c1 [A229, 1-[3-amino-4-(4-{[6-(7-methoxy-imidazo[1,2-a]pyridin-3-yl)-pyrimidin-4-ylamino]-methyl}-phenyl)-pyrazol-1-yl]-2-methyl-propan-2-ol] | – | 660 nM | 87 nM |
| Cn1ncc(-c2ccc(CNc3cc(-c4cnc5cc(N6CCCC6)ccn45)ncn3)cc2)n1 [A232, [4-(2-methyl-2H-[1,2,3]triazol-4-yl)-benzyl]-[6-(7-pyrrolidin-1-yl-imidazo[1,2-a]pyridin-3-yl)-pyrimidin-4-yl]-amine] | – | 170 nM | 23 nM |
| CC(COc1ccn2c(-c3cc(NCc4ccc(-c5cnn(C)c5)cc4)ncn3)cnc2c1)CN1CCCC1 (centres unmarked) [A235, [4-(1-methyl-1H-pyrazol-4-yl)-benzyl]-{6-[7-(2-methyl-3-pyrrolidin-1-yl-propoxy)-imidazo[1,2-a]pyridin-3-yl]-pyrimidin-4-yl}-amine] | – | 87 nM | 4.3 nM |
| Cn1cc(-c2ccc(CNc3cc(-c4cnc5cc(OCCCN6CCCCC6)ccn45)ncn3)cc2)cn1 [A237, N-{[4-(1-methyl-1H-pyrazol-4-yl)phenyl]methyl}-6-{7-[3-(piperidin-1-yl)propoxy]imidazo[1,2-a]pyridin-3-yl}pyrimidin-4-amine] | – | 35 nM | 4.3 nM |
| Cn1cc(-c2ccc(CNc3cc(-c4cnc5cc(OCCCN6CC7(COC7)C6)ccn45)ncn3)cc2)cn1 [A238, [4-(1-methyl-1H-pyrazol-4-yl)-benzyl]-(6-{7-[3-(2-oxa-6-aza-spiro[3.3]hept-6-yl)-propoxy]-imidazo[1,2-a]pyridin-3-yl}-pyrimidin-4-yl)-amine] | – | 62 nM | 6.4 nM |
| Cn1ncc(-c2ccc(CNc3cc(-c4cnc5cc(OCCCN6CC7(COC7)C6)ccn45)ncn3)cc2)n1 [A239, [4-(2-methyl-2H-[1,2,3]triazol-4-yl)-benzyl]-(6-{7-[3-(2-oxa-6-aza-spiro[3.3]hept-6-yl)-propoxy]-imidazo[1,2-a]pyridin-3-yl}-pyrimidin-4-yl)-amine] | – | 94 nM | 3.2 nM |
| Cn1cc(-c2ccc(CNc3cc(-c4cnc5cc(F)ccn45)ncn3)cc2)cn1 [H1, 6-{7-fluoroimidazo[1,2-a]pyridin-3-yl}-N-{[4-(1-methyl-1H-pyrazol-4-yl)phenyl]methyl}pyrimidin-4-amine] | – | 240 nM | 12 nM |
